Test results published in paper PMC10507085, “Pharmacological inhibition of TBK1/IKKε blunts immunopathology in a murine model of SARS-CoV-2 infection” (Nature Communications, 2023).

Assays:
Assay in all cases: biochemical
Design in all cases: KINOMEscan competition binding, DNA-tagged kinase against immobilised ligand, qPCR read-out
Settings in all cases: read-out: Percent Control
MET = MET (Homo sapiens, UniProt P08581)
TNNI3K = TNNI3K (Homo sapiens, UniProt Q59H18)
CAMKK2 = CAMKK2 (Homo sapiens, UniProt Q96RR4)
CAMK2A = CAMK2A (Homo sapiens, UniProt Q9UQM7)
PIM1 = PIM1 (Homo sapiens, UniProt P11309)
CDK3 = CDK3 (Homo sapiens, UniProt Q00526)
CLK1 = CLK1 (Homo sapiens, UniProt P49759)
ULK2 = ULK2 (Homo sapiens, UniProt Q8IYT8)
Chain of ULK2 (Q8IYT8 whole entry): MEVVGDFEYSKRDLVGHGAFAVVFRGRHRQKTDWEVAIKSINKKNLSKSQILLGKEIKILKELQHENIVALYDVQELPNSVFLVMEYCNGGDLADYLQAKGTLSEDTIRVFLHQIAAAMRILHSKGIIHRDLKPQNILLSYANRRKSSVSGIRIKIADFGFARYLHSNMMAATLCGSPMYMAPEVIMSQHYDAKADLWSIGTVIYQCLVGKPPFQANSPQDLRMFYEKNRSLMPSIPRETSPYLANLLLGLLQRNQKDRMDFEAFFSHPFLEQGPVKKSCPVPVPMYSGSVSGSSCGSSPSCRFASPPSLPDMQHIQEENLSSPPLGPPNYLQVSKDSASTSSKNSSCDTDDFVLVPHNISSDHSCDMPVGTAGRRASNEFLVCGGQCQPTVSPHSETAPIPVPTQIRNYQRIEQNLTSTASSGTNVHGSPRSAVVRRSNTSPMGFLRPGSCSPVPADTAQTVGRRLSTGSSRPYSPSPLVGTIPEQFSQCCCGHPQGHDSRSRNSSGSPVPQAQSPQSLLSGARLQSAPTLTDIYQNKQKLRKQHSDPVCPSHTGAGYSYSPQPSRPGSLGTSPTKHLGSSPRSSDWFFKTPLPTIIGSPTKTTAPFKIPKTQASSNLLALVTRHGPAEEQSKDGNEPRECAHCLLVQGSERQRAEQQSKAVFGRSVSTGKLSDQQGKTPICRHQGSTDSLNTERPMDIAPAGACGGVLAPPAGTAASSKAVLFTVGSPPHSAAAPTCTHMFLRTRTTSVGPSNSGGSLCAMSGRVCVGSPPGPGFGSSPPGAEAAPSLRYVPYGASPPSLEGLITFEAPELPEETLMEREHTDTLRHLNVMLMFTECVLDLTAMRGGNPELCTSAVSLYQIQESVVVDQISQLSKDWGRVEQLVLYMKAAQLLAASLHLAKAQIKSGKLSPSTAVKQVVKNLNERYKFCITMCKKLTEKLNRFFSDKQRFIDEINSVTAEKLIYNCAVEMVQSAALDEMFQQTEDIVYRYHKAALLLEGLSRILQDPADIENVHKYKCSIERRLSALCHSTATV

NEK4 = NEK4 (Homo sapiens, UniProt P51957)
CSNK1A1 = CSNK1A1 (Homo sapiens, UniProt P48729)
FGFR3 = FGFR3 (Homo sapiens, UniProt P22607)
Chain of FGFR3 (P22607 whole entry): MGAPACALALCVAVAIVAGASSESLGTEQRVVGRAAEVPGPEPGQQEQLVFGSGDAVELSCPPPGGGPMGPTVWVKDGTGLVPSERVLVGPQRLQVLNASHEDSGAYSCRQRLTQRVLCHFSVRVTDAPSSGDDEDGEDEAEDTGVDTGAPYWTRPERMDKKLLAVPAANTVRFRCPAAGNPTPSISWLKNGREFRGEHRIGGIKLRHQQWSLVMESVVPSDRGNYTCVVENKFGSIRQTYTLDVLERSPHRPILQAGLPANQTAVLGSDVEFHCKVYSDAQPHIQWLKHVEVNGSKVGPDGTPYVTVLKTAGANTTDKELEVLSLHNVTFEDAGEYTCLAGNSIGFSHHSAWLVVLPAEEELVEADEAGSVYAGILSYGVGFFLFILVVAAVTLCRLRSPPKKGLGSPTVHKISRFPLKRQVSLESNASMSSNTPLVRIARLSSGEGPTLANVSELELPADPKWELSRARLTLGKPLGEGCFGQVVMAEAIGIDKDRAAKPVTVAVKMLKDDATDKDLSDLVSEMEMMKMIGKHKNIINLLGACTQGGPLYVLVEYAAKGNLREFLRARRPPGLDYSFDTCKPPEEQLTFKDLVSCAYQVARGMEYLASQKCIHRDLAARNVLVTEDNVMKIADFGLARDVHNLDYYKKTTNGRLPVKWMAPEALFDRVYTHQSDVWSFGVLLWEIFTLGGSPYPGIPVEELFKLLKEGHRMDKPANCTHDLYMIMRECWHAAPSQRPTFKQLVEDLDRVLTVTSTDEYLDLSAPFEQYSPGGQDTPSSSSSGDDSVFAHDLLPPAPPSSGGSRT

CAMK1D = CAMK1D (Homo sapiens, UniProt Q8IU85)
Chain of CAMK1D (Q8IU85 whole entry): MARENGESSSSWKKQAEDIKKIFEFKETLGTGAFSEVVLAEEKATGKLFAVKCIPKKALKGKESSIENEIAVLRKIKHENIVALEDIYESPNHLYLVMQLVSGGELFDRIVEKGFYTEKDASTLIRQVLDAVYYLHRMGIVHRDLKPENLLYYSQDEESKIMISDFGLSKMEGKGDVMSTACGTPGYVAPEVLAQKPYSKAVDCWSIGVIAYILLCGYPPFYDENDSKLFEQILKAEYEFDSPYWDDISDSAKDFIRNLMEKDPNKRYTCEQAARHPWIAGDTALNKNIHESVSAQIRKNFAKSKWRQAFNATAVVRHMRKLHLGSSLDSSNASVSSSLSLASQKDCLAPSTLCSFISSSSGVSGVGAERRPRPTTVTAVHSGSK

CDKL1 = CDKL1 (Homo sapiens, UniProt Q00532)
MAPK7 = MAPK7 (Homo sapiens, UniProt Q13164)
DCLK3 = DCLK3 (Homo sapiens, UniProt Q9C098)
PRKG2 = PRKG2 (Homo sapiens, UniProt Q13237)
MAPKAPK5 = MAPKAPK5 (Homo sapiens, UniProt Q8IW41)
MAP3K12 = MAP3K12 (Homo sapiens, UniProt Q12852)
Chain of MAP3K12 (Q12852 whole entry): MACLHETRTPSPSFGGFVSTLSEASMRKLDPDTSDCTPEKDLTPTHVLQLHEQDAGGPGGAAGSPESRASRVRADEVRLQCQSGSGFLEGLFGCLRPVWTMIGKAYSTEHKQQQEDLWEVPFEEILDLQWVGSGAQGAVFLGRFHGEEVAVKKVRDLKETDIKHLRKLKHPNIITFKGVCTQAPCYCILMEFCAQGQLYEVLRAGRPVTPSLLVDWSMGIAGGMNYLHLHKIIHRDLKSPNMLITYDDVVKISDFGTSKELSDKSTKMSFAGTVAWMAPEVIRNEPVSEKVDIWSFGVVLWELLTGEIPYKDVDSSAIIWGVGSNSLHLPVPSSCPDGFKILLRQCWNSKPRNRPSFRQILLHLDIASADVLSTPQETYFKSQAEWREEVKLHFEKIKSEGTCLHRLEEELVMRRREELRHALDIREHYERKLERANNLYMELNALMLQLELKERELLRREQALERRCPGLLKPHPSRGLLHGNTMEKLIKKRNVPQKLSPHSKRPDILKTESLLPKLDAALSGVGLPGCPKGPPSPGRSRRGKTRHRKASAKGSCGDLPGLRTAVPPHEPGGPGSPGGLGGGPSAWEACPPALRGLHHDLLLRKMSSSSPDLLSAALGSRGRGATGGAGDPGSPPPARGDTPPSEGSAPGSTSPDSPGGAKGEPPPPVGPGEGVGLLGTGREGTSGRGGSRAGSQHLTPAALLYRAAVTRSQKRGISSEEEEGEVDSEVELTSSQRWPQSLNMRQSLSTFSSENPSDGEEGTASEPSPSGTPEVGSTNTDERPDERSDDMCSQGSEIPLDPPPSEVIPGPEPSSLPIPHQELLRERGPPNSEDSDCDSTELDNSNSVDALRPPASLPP

CDK14 = CDK14 (Homo sapiens, UniProt O94921)
Chain of CDK14 (O94921 whole entry): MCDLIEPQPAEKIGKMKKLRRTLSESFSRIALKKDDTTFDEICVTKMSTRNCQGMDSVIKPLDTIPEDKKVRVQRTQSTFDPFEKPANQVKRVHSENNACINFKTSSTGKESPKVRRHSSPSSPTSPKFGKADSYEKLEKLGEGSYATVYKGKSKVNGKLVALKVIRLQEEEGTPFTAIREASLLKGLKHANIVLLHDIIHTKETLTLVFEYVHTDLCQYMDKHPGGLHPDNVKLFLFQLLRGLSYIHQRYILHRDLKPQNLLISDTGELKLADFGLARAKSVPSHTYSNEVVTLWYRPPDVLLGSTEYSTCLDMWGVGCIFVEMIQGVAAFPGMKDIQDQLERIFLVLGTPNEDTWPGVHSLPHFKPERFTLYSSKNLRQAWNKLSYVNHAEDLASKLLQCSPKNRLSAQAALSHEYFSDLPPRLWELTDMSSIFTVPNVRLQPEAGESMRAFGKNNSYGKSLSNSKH

MYLK = MYLK (Homo sapiens, UniProt Q15746)

Chain of MET (P08581 whole entry): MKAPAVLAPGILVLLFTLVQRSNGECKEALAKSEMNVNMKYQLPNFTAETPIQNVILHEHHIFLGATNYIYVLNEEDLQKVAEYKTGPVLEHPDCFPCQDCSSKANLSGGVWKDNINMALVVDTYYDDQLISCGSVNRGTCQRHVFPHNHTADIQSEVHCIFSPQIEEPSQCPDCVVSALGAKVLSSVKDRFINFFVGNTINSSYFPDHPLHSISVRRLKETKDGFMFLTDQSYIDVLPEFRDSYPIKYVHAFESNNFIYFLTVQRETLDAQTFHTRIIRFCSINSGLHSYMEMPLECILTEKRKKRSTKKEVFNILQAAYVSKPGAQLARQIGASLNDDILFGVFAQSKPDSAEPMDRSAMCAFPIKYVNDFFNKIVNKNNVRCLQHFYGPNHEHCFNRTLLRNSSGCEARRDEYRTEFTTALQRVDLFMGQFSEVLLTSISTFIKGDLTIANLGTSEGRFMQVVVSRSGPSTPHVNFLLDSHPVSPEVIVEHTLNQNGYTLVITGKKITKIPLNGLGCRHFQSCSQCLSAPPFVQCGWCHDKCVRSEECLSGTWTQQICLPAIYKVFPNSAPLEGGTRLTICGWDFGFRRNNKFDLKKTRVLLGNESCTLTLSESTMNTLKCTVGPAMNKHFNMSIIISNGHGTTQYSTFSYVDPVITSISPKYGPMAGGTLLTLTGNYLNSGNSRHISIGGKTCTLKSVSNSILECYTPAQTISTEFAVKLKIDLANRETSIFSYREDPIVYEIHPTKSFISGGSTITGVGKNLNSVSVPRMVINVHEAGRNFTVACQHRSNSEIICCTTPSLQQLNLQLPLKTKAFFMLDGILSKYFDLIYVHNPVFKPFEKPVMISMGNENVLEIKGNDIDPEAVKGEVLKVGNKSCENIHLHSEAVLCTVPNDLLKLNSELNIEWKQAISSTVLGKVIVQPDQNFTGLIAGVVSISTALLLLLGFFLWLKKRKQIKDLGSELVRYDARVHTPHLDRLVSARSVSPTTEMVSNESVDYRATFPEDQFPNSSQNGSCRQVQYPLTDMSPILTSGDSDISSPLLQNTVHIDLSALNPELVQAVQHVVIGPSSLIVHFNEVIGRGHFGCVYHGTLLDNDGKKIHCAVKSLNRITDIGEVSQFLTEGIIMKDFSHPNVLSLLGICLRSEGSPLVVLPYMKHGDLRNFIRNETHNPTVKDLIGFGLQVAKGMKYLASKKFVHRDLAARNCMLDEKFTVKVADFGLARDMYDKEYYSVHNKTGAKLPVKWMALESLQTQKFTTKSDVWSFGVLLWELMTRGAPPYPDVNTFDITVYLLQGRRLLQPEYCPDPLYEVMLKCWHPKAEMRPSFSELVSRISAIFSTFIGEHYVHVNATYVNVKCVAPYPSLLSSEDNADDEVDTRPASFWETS

`Oc1ccc(C2=Cc3ccc(O)cc3OC2)cc1` [compound 1, idronoxil] showed a remaining binding at 10 µM (MET) of 81%, a remaining binding at 10 µM (TNNI3K) of 99% and a remaining binding at 10 µM (CAMKK2) of 68%. It also gave a remaining binding at 10 µM (CAMK2A) of 87%, a remaining binding at 10 µM (PIM1) of 34% and a remaining binding at 10 µM (CDK3) of 89%. The remaining binding at 10 µM (CLK1) was 53%, the remaining binding at 10 µM (ULK2) was 100% and the remaining binding at 10 µM (NEK4) was 98%. For the same compound, the remaining binding at 10 µM (CSNK1A1) was 86%, the remaining binding at 10 µM (FGFR3) was 80% and the remaining binding at 10 µM (CAMK1D) was 100%. The remaining binding at 10 µM (CDKL1) was 77%, the remaining binding at 10 µM (MAPK7) was 90% and the remaining binding at 10 µM (DCLK3) was 92%. The remaining binding at 10 µM (PRKG2) was 71%, the remaining binding at 10 µM (MAPKAPK5) was 75% and the remaining binding at 10 µM (MAP3K12) was 75%. For the same compound, the remaining binding at 10 µM (CDK14) was 95% and the remaining binding at 10 µM (MYLK) was 52%.
